The source of these data is patent EP4703359A1 (Shanghai Simr Biotechnology Co., Ltd., priority 2023, dated 2024).

Assay [1] addresses T1, α2-GABAA receptor (Homo sapiens, UniProt P18507+P47869).
T1 construct: expressed in transfected cells
As to the kind of experiment: Whole-cell patch-clamp electrophysiology, positive allosteric modulatory activity in α2-GABAAR-HEK293 cells. It is filed as cell-based. To be noted: compound 100 nM; GABA 0.10 to 0.11 µM (approximately EC7-8); normalized to reference compound CVL-865 (= 100%); read-out: α2-GABAAR Positive allosteric modulatory activity. A digest of the protocol:
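HEK293 cells stably co-expressing α2β3γ2 GABAA receptor, whole-cell patch clamp at -60 mV. Compounds at 100 nM final applied with GABA 0.10–0.11 µM (~EC7-8) after GABA-only current stabilized. […]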
(In general: Patch clamp records ionic current or voltage across a cell membrane.)

The target of assay [2] is T1, α2-GABAA receptor. As to the kind of experiment: Radioactive ligand (3H-flunitrazepam) competitive binding assay, BZD site of membrane proteins of α2-GABAAR-HEK293 cells. To be noted: competition with 1 nM 3H-flunitrazepam; HEK293 membranes expressing α2, β3, γ2 subunits; Ki calculated from IC50; read-out: α2 Ki. The text has this:
The α subunit, β subunit, and γ subunit are indispensable for forming a fully functional GABAA receptor. In this example, HEK293 cells stably expressing α2-GABAA receptors (α2-GABAAR) were constructed and screened respectively via liposome transfection (Felgner, P.L., et al. Proceedings of the National Academy of Sciences, 1987, 84: 7413-7417). The α2-GABAAR-HEK293 cell model co-expresses the α2 subunit (protein sequence referenced under GenBank accession number: NM_000807.4), β3 subunit (protein sequence referenced under GenBank accession number: NM_000814.5), and γ2 subunit (protein sequence referenced under GenBank accession number: NM_000816.3).
The above cell lines were subcultured. α2-GABAAR-HEK293 cells were amplified for testing the affinity of compounds to the benzodiazepine (BZD) site of GABAA receptors. Some of the α2-GABAAR-HEK293 cells in suspension during subculturing were plated on glass slides pre-treated with Poly-D-Lysine for electrophysiological testing (method reference: Patent CN 107344936 A, paragraph 0586).
The affinity of the compound for the α2-GABAA receptor was determined by competing with ^3H-flunitrazepam (isotope ^3H-labeled flunitrazepam) for binding to the BZD site of membrane proteins in HEK293 cells stably expressing human α2-GABAAR.
Membrane preparation: Cells were suspended in 50 mM Tris-HCl buffer (pH=7.4), homogenized on ice using a homogenizer for 20 seconds with 10 repetitions, and centrifuged at 4°C, 1000g for 10 minutes. The supernatant was collected, and the above steps were repeated. The supernatant was centrifuged at 4°C (33,800 × g; Thermo, rotor: A27-8x50) for 60 minutes, and the pellet was resuspended in Tris buffer (50 mM Tris-HCl, 10 mM MgCl2, 0.5 mM EDTA, 10% glycerol). The protein concentration was determined using the bicinchoninic acid (BCA) protein assay based on the copper ion reduction method (BCA kit purchased from Pierce (Annoron)). Aliquots of 1 mL were prepared and stored at -80°C.
Radioactive ligand competitive binding assay: This assay was conducted in a 200 µL system (96-well plate), containing 100 µL of cell membrane. The concentration of ^3H-flunitrazepam was 1 nM, and the concentration of the test compound ranged from […]. Flumazenil was used as a control. The low signal control well (Low Control, LC) was added with 1 µL of 2 mM flumazenil (final concentration 10 µM), while the high signal control well (High Control, HC) was added with 1 µL of dimethyl sulfoxide. The final concentration of the target membrane protein was 5 µg/well. All test compound stock solutions were prepared as 10 mM solutions in dimethyl sulfoxide. The working concentration of the samples was prepared by diluting all samples to 0.2 mM with dimethyl sulfoxide, followed by a 4-fold serial dilution to obtain a total of 8 concentration gradients. The 96-well plate was sealed with sealing film and then incubated on a shaker at room temperature for 1 hour. The GF/C filter plate was also soaked with a soaking buffer (0.3% PEI (polyethyleneimine, purchased from: Sigma-Aldrich, model: P314), stored at 4°C) for at least 0.5 hours. After the incubation was completed, the mixture was collected onto a GF/C filter plate using a cell harvester and washed four times with wash buffer (50 mM Tris-HCl, pH 7.4, stored at 4°C). After drying in a 50°C oven for 1 hour, the dried GF/C filter plate was sealed at the bottom with a film. The residual radioactivity on the filter membrane was detected using liquid scintillation counting. Each well was filled with 50 µL of scintillation fluid and sealed. Readings were taken using a Microbeta^2 (microplate counter, purchased from PerkinElmer, model: CNLL0153). The inhibitory activity of the test sample on the binding of ^3H-flunitrazepam to GABAA receptor membrane protein was calculated. […]

A word on the Ki: it is a measure of affinity in units of concentration, obtained from inhibition or displacement.

`CCCNC(=O)c1nc2c(-c3c(OC)ccc(F)c3F)cccn2c1N` [Example 76, 3-Amino-8-(2,3-difluoro-6-methoxyphenyl)-N-propylimidazo[1,2-a]pyridine-2-carboxamide]: in assay [1], the Emax at 0.1 µM is 101%. In addition, the Ki in assay [2] was 12.9 nM.
Turning to `CCCNC(=O)c1nc2c(-c3c(OC)ccc(C)c3F)cccn2c1N` [Example 77, 3-Amino-8-(2-fluoro-6-methoxy-3-methylphenyl)-N-propylimidazo[1,2-a]pyridine-2-carboxamide], in assay [1], the Emax at 0.1 µM turned out to be 126%. Besides, the Ki in assay [2] is 5.17 nM.
As to `CCCNC(=O)c1nc2c(-c3c(F)ccc(C)c3OC)cccn2c1N` [Example 78, 3-Amino-8-(6-fluoro-2-methoxy-3-methylphenyl)-N-propylimidazo[1,2-a]pyridine-2-carboxamide], in assay [1], the Emax at 0.1 µM is 74%. Further, in assay [2], the Ki is 31.7 nM.
Regarding `CCCNC(=O)c1nc2c(-c3c(F)ccc(F)c3OC)cccn2c1N` [Example 79, 3-Amino-8-(3,6-difluoro-2-methoxyphenyl)-N-propylimidazo[1,2-a]pyridine-2-carboxamide], in assay [1], the Emax at 0.1 µM worked out at 71%. Also, the Ki in assay [2] was 40.1 nM.
For `CCCNC(=O)c1nc2c(-c3cccnc3OC)cccn2c1N` [Example 82, 3-Amino-8-(2-methoxypyridin-3-yl)-N-propylimidazo[1,2-a]pyridine-2-carboxamide], in that order: 93% and 22.3 nM.
Consider `CCCNC(=O)c1nc2c(-c3cc(C)cnc3OC)cccn2c1N` [Example 83, 3-Amino-8-(2-methoxy-5-methylpyridin-3-yl)-N-propylimidazo[1,2-a]pyridine-2-carboxamide], for which the Emax at 0.1 µM in assay [1] stood at 164%. In addition, the Ki in assay [2] was 5.9 nM.
On to `CCCNC(=O)c1nc2c(-c3cc(F)cnc3OC)cccn2c1N` [Example 84, 3-Amino-8-(5-fluoro-2-methoxypyridin-3-yl)-N-propylimidazo[1,2-a]pyridine-2-carboxamide], for which the Emax at 0.1 µM in assay [1] was determined as 133%. Further, in assay [2], the Ki is 42 nM.
On to `CCCNC(=O)c1nc2c(-c3cnccc3OC)cccn2c1N` [Example 85, 3-Amino-8-(4-methoxypyridin-3-yl)-N-propylimidazo[1,2-a]pyridine-2-carboxamide], for which the Emax at 0.1 µM in assay [1] is 100%. For the same molecule, the Ki in assay [2] is 17.2 nM.
In the case of `CCCNC(=O)c1nc2c(-c3cc4c(cc3OC)N(C)C(=O)CO4)cccn2c1N` [Example 91, 3-Amino-8-(6-methoxy-4-methyl-3-oxo-3,4-dihydro-2H-benzo[b][1,4]oxazin-7-yl)-N-propylimidazo[1,2-a]pyridine-2-carboxamide], the Emax at 0.1 µM in assay [1] was 93%. The inhibition constant Ki in assay [2] was 27 nM.
As for `CCCNC(=O)c1nc2c(-c3c(F)ccc4c3oc(=O)n4C)cccn2c1N` [Example 105, 3-Amino-8-(6-fluoro-3-methyl-2-oxo-2,3-dihydrobenzo[d]oxazol-7-yl)-N-propylimidazo [1,2-a] pyridine-2-carboxamide], the Emax at 0.1 µM in assay [1] was 160%. Moreover, in assay [2], the Ki is 39.6 nM.
Turning to `CCCNC(=O)c1nc2c(-c3c(F)cccc3OC)c(F)ccn2c1N` [Example 122, 3-Amino-7-fluoro-8-(2-fluoro-6-methoxyphenyl)-N-propylimidazo[1,2-a]pyridine-2-carboxamide], the Emax at 0.1 µM in assay [1] was 105%. The inhibitory constant (Ki) in assay [2] is 11.4 nM.
On to `CCCNC(=O)c1nc2c(-c3cc4c(cc3OC)N(C)C(=O)CO4)c(F)ccn2c1N` [Example 123, 3-Amino-7-fluoro-8-(6-methoxy-4-methyl-3-oxo-3,4-dihydro-2H-benzo[b][1,4]oxazin-7-yl)-N-propylimidazo[1,2-a]pyridine-2-carboxamide], for which the Emax at 0.1 µM in assay [1] worked out at 71%. In assay [2], the Ki was 4.97 nM.
In the case of `CCCNC(=O)c1nc2c(-c3c(F)cccc3OC)nccn2c1N` [Example 135, 3-amino-8-(2-fluoro-6-methoxyphenyl)-N-propylimidazo[1,2-a]pyrazine-2-carboxamide], the Emax at 0.1 µM in assay [1] was found to be 60%. The Ki in assay [2] is 81.1 nM.
Regarding `[2H]c1ccc(OC)c(-c2cccn3c(N)c(C(=O)NCCC)nc23)c1F` [Example 136, 3-Amino-8-(2-fluoro-6-methoxyphenyl-3-d)-N-propylimidazo[1,2-a]pyridine-2-carboxamide], the Emax at 0.1 µM in assay [1] stood at 91%. Also, the Ki in assay [2] was 17.6 nM.
As for `[2H]c1ccc(F)c(-c2cccn3c(N)c(C(=O)NCCC)nc23)c1OC` [Example 137, 3-Amino-8-(2-fluoro-6-methoxyphenyl-5-d)-N-propylimidazo[1,2-a]pyridine-2-carboxamide], the Emax at 0.1 µM in assay [1] worked out at 97%. Besides, in assay [2], the Ki is 13.5 nM.
For `[2H]C([2H])([2H])Oc1cccc(F)c1-c1cccn2c(N)c(C(=O)NCCC)nc12` [Example 138, 3-Amino-8-(2-fluoro-6-(methoxy-d3)phenyl)-N-propylimidazo[1,2-a]pyridine-2-carboxamide], in that order: 77% and 11.1 nM.
For `CCCNC(=O)c1nc2c(Oc3cc(F)ccc3OC)cccn2c1N` [Example 144, 3-Amino-8-(5-fluoro-2-methoxyphenoxy)-N-propylimidazo[1,2-a]pyridine-2-carboxamide], the Emax at 0.1 µM in assay [1] is 95%. Moreover, the Ki in assay [2] is 4.97 nM.
The like results for `CCCNC(=O)c1nc2c(-c3c(F)cccc3OC)c(C#N)ccn2c1N` [Example 148, 3-Amino-7-cyano-8-(2-fluoro-6-methoxyphenyl)-N-propylimidazo[1,2-a]pyridine-2-carboxamide] were, in that order, 107% and 4.46 nM.
With `CCCNC(=O)c1nc2c(N3CCOCC3C)cccn2c1N` (stereo not shown) [Example 149, 3-Amino-8-(3-methylmorpholino)-N-propylimidazo[1,2-a]pyridine-2-carboxamide], in assay [1], the Emax at 0.1 µM is 44%. Moreover, the Ki in assay [2] was 90 nM.
For `CCCNC(=O)c1nc2c(OCc3c(F)cccc3OC)cccn2c1N` [Example 151, 3-Amino-8-((2-fluoro-6-methoxybenzyl)oxy)-N-propylimidazo[1,2-a]pyridine-2-carboxamide], the Emax at 0.1 µM in assay [1] was determined as 35%. The inhibitory constant (Ki) in assay [2] is 87 nM.
